Experimental data taken from US5143911A, “Antibiotic C-3 di-hydroxyphenyl substituted cephalosporin compounds, compositions and method of use thereof” (Bristol-Myers Squibb Company, priority 1990, dated 1992).
Values after ≈ are worked out from the molar mass of the structure shown.

Columns and labels:
S. epidermidis 11-1168 = assay type: cell-based; settings: Staphylococcus epidermidis, 111168, pH 7.2, 32° C. 18 hr, 10^6 cells/ml
E. faecalis A9808 = settings: Enterococcus faecalis, A9808, 18 h, pH 7.2
P. aeruginosa IPM-9 = settings: Pseudomonas aeruginosa, IPM9, 18 h, pH 7.2
S. aureus Smith = settings: Staphylococcus aureus, 18 h, pH 7.2
S. marcescens IPM-16 = settings: Serratia marcescens, IPM16, 18 h, pH 7.2
P. rettgeri IPM-14 = settings: Providencia rettgeri, IPM14, 18 h, pH 7.2
X. maltophilia No. 661 = settings: Stenotrophomonas maltophilia, NO.661, 18 h, pH 7.2
E. faecium A24817 = assay type: cell-based; settings: Enterococcus faecium, pH 7.2, 32° C. 18 hr, 10^6 cells/ml
P. aeruginosa IPM-8 = settings: Pseudomonas aeruginosa, IPM8, 18 h, pH 7.2
C. freundii GN 7391 = settings: Citrobacter freundii, GN7391, 18 h, pH 7.2
S. epidermidis 11-1230 = settings: Staphylococcus epidermidis, 111230, 18 h, pH 7.2
S. aureus 209P = settings: Staphylococcus aureus, 18 h, pH 7.2
M. luteus 1001 = settings: Micrococcus luteus, 1001, 18 h, pH 7.2
P. mirabilis IFO-2849 = settings: Proteus mirabilis, IFO2849, 18 h, pH 7.2
P. cepacia A21213 = assay type: cell-based; settings: Burkholderia cepacia, pH 7.2, 32° C. 18 hr, 10^6 cells/ml
E. coli Juhl A15119 = settings: Escherichia coli, JUHLA15119, 18 h, pH 7.2
E. cloacae IPM-12 = settings: Enterobacter cloacae, IPM12, 18 h, pH 7.2
P. vulgaris IPM-13 = assay type: cell-based; settings: Proteus vulgaris, IPM13, pH 7.2, 32° C. 18 hr, 10^6 cells/ml
S. marcescens IPM-15 = settings: Serratia marcescens, IPM15, 18 h, pH 7.2
B. subtilis PCI 219 = settings: Bacillus subtilis, PCI219, 18 h, pH 7.2
P. cepacia No. 651 = settings: Burkholderia cepacia, NO.651, 18 h, pH 7.2
E. coli 255 = settings: Escherichia coli, 255, 18 h, pH 7.2
S. aureus IPM-24 (MRSA) = settings: Staphylococcus aureus, 18 h, pH 7.2
K. pneumoniae PCI 602 = settings: Klebsiella pneumoniae, PCI602, 18 h, pH 7.2
M. morgani 1510 = settings: 18 h, pH 7.2
P. aeruginosa A20599 = assay type: cell-based; settings: Pseudomonas aeruginosa, pH 7.2, 32° C. 18 hr, 10^6 cells/ml
M. morgani 1510/9 = settings: 18 h, pH 7.2
P. aeruginosa KKA 19 = settings: Pseudomonas aeruginosa, KKA19, 18 h, pH 7.2
S. aureus 4-1015 (MRSA) = settings: Staphylococcus aureus, 18 h, pH 7.2
X. maltophilia GN 12873 = settings: Stenotrophomonas maltophilia, GN12873, 18 h, pH 7.2
C. terrigena IFO 12685 = settings: 18 h, pH 7.2

Nc1nc(/C(=N/O)C(=O)NC2C(=O)N3C(C(=O)O)=C(/C=C/COC(=O)c4ccc(O)c(O)c4)CSC23)cs1 (stereo not shown) [Id, 7-[(Z)-2-(2-Aminothiazol-4-yl)-2-hydroxyiminoacetamido]-3-[(E)-3l-(3,4-dihydroxybenzoyloxy)-1-propen-1-yl]-3-cephem-4-carboxylic acid]
MIC (S. epidermidis 11-1168): 3.1 µg/mL (≈ 5.52 µM) | MIC (E. faecalis A9808): 12.5 µg/mL (≈ 22.3 µM) | MIC (P. aeruginosa IPM-9): > 100 µg/mL | MIC (S. aureus Smith): 0.8 µg/mL (≈ 1.42 µM) | MIC (S. marcescens IPM-16): > 100 µg/mL | MIC (P. rettgeri IPM-14): 0.4 µg/mL (≈ 0.712 µM) | MIC (X. maltophilia No. 661): > 100 µg/mL | MIC (E. faecium A24817): 100 µg/mL (≈ 178 µM) | MIC (P. aeruginosa IPM-8): > 100 µg/mL | MIC (C. freundii GN 7391): 50 µg/mL (≈ 89 µM) | MIC (S. epidermidis 11-1230): 6.3 µg/mL (≈ 11.2 µM) | MIC (S. aureus 209P): 0.8 µg/mL (≈ 1.42 µM) | MIC (M. luteus 1001): 0.2 µg/mL (≈ 0.356 µM) | MIC (P. mirabilis IFO-2849): 0.2 µg/mL (≈ 0.356 µM) | MIC (P. cepacia A21213): > 100 µg/mL | MIC (E. coli Juhl A15119): 0.2 µg/mL (≈ 0.356 µM) | MIC (E. cloacae IPM-12): > 100 µg/mL | MIC (P. vulgaris IPM-13): > 100 µg/mL | MIC (S. marcescens IPM-15): > 100 µg/mL | MIC (B. subtilis PCI 219): 0.4 µg/mL (≈ 0.712 µM) | MIC (P. cepacia No. 651): > 100 µg/mL | MIC (E. coli 255): 0.8 µg/mL (≈ 1.42 µM) | MIC (S. aureus IPM-24 (MRSA)): 100 µg/mL (≈ 178 µM) | MIC (K. pneumoniae PCI 602): 0.025 µg/mL (≈ 0.0445 µM) | MIC (M. morgani 1510): 6.3 µg/mL (≈ 11.2 µM) | MIC (P. aeruginosa A20599): > 100 µg/mL | MIC (M. morgani 1510/9): 0.2 µg/mL (≈ 0.356 µM) | MIC (P. aeruginosa KKA 19): > 100 µg/mL | MIC (S. aureus 4-1015 (MRSA)): 6.3 µg/mL (≈ 11.2 µM) | MIC (X. maltophilia GN 12873): > 100 µg/mL | MIC (C. terrigena IFO 12685): 0.8 µg/mL (≈ 1.42 µM)
